The values below come from US8048879B2, “Substituted 4,5,6,7-tetrahydro-isoxazolo[4,5-c]pyridine compounds and use thereof for producing medicaments” (Gruenenthal GmbH, priority 2005, dated 2011).

Broadly, the inhibition is the relative decrease from the control value, in per cent.

The target in this test is T1, 5-HT transporter (Rattus norvegicus, UniProt P31652).
T1 construct: from tissue; host or cells: rat brain (medulla and pons), synaptosomes, P2 fraction
T1 sequence (P31652 whole entry): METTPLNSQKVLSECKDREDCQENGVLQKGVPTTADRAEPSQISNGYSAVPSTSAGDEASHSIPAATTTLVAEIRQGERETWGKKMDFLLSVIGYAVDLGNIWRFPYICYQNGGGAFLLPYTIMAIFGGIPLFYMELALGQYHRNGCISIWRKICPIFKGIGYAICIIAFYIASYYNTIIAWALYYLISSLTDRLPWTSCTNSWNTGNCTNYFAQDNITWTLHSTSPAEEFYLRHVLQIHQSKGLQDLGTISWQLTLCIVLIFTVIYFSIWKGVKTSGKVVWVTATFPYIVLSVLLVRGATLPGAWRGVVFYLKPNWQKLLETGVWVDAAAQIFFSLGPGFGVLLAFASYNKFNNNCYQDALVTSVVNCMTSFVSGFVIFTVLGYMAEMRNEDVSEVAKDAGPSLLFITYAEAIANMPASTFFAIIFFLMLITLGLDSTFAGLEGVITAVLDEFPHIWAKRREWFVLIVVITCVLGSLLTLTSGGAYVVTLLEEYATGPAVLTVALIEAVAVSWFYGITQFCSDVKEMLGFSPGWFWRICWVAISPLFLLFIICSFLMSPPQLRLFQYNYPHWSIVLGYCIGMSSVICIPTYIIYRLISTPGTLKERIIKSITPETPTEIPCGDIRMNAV
Briefly: 5-HT uptake inhibition, synaptosomes from rat brain (medulla and pons). The class given is biochemical. From the text: b) Method for Determining Noradrenalin and 5-HT Uptake Inhibition:
Synaptosomes from rat brain regions are freshly isolated for in vitro studies, as described in the publication “The isolation of nerve endings from brain” by E. G. Gray and V. P. Whittaker, J. Anatomy 96, pages 79-88, 1962. The corresponding literature description is hereby introduced as a reference and is deemed to be part of the disclosure.
The tissue (hypothalamus for the determination of noradrenalin uptake inhibition and medulla and pons for the determination of 5-HT uptake inhibition) is homogenised in ice-cooled 0.32 M sucrose (100 mg of tissue/1 mL) in a glass homogeniser with Teflon pestle using five complete up and down strokes at 840 revolutions/minute.
The homogenate is centrifuged at 4° C. for 10 minutes at 1000 g. After subsequent centrifugation at 17000 g for 55 minutes, the synaptosomes (P2 fraction) are obtained, which are resuspended in 0.32 M […] (0.5 mL/100 mg of original weight).
The particular uptake is measured in a 96-well microtitre plate. The volume is 250 μL and the incubation proceeds at room temperature (approx. 20-25° C.) under an O2 atmosphere.
The incubation time is 7.5 minutes for [^3H]-NA and 5 minutes for [^3H]-5-HT. The 96 samples are then filtered through a Unifilter GF/B® microtitre plate (Packard) and washed with 200 mL of incubated buffer using a “Brabdel MPXRI-96T Cell-Harvester”. The Unifilter GF/B plate is dried for 1 hour at 55° C. The plate is then sealed with a Back Seal® (Packard) and 35 μL of scintillation fluid are added per well (Ultima Gold®, Packard). After sealing with a top Seal® (Packard) and establishing an equilibrium (around 5 hours), radioactivity is determined in a “Trilux 1450 Microbeta” (Wallac).
The quantity of protein used in the above determination corresponds to the values known from the literature, as for example described in “Protein measurement with the folin phenol reagent”, Lowry et al., J. Biol. Chem., 193, 265-275, 1951.
A detailed description of the method may additionally be found in the literature, for example in M. Ch. Frink, H.-H. Hennies, W. Engelberger, M. Haurand and B. Wilffert (1996) Arzneim.-Forsch./Drug Res. 46 (III), 11, 1029-1036.
The following characteristics were determined for the NA or 5-HT transporter: […]
As to `O=C(c1noc2c1CN(S(=O)(=O)c1ccc(F)cc1)CC2)N1CCN(c2ncnc3sccc23)CC1` [Example 34], the “5-HT uptake (rat), 10 μM, % inhibition” value came out at 74%.

`Cc1ccc(NC(=O)N2CCc3onc(C(=O)NCc4ccc(F)cc4)c3C2)cc1[N+](=O)[O-]` [Example 14, 6,7-dihydro-4H-isoxazolo[4,5-c]pyridine-3,5-dicarboxylic acid 3-(4-fluorobenzyl amide) 5-[(4-methyl-3-nitro-phenyl) amide]]: the “5-HT uptake (rat), 10 μM, % inhibition” value turned out to be 53%.

With `C#CCNC(=O)c1noc2c1CN(C(=O)Nc1ccc(C)c([N+](=O)[O-])c1)CC2` [Example 16, 6,7-dihydro-4H-isoxazolo[4,5-c]pyridine-3,5-dicarboxylic acid 5-[(4-methyl-3-nitro-phenyl) amide]3-prop-2-ynyl amide], the “5-HT uptake (rat), 10 μM, % inhibition” value is listed as 55%.

For the molecule `CCCCOc1ccc(S(=O)(=O)N2CCc3onc(C(=O)NCC(C)C)c3C2)cc1` [Example 114, 5-(4-butoxy-benzenesulfonyl)-4,5,6,7-tetrahydro-isoxazolo[4,5-c]pyridine-3-carboxylic acid isobutyl amide], at 10 µM the inhibition was 85%.

Regarding `CC(C)CNC(=O)c1noc2c1CN(C(=O)C(NC(=O)OCc1ccccc1)c1ccccc1)CC2` (stereo not shown) [Example 126, [2-(3-isobutylcarbamoyl-6,7-dihydro-4H-isoxazolo[4,5-c]pyridin-5-yl)-2-oxo-1-phenyl-ethyl]-carbamic acid benzyl ester], the inhibition at 10 µM stood at 80%.

`CC1C(NC(=O)c2noc3c2CN(S(=O)(=O)N(C)C)CC3)CC2CC1C2(C)C` (stereo not shown) [Example 60, 5-dimethylsulfamoyl-4,5,6,7-tetrahydro-isoxazolo[4,5-c]pyridine-3-carboxylic acid (2,6,6-trimethyl-bicyclo[3.1.1]hept-3-yl) amide]: the inhibition at 10 µM worked out at 81%.

Molecule `CN(C)S(=O)(=O)N1CCc2onc(C(=O)N(CCC#N)Cc3cccnc3)c2C1` [Example 70, 5-dimethylsulfamoyl-4,5,6,7-tetrahydro-isoxazolo[4,5-c]pyridine-3-carboxylic acid (2-cyano-ethyl)-pyridin-3-ylmethyl-amide] yielded an inhibition at 10 µM of 63%.

Regarding `O=C(NC1CCCC1)c1noc2c1CN(C(=O)NCc1ccc(F)cc1)CC2` [Example 2, 6,7-dihydro-4H-isoxazolo[4,5-c]pyridine-3,5-dicarboxylic acid 3-cyclopentyl amide 5-(4-fluorobenzyl amide)], the “5-HT uptake (rat), 10 μM, % inhibition” value is on record as 41%.

For `O=C(NC1CCc2ccccc21)c1noc2c1CN(S(=O)(=O)c1ccccc1)CC2` (stereo not shown) [Example 61, 5-benzenesulfonyl-4,5,6,7-tetrahydro-isoxazolo[4,5-c]pyridine-3-carboxylic acid indan-1-yl amide], the inhibition at 10 µM stood at 64%.

Turning to `C#CCNC(=O)c1noc2c1CN(C(=O)Nc1cccc(F)c1)CC2` [Example 19, 6,7-dihydro-4H-isoxazolo[4,5-c]pyridine-3,5-dicarboxylic acid 5-[(3-fluorophenyl) amide] 3-prop-2-ynyl amide], the “5-HT uptake (rat), 10 μM, % inhibition” value came out at 50%.

With `O=C(NCc1ccc(C(F)(F)F)c(F)c1)c1noc2c1CN(S(=O)(=O)c1ccccc1)CC2` [Example 113, 5-benzenesulfonyl-4,5,6,7-tetrahydro-isoxazolo[4,5-c]pyridine-3-carboxylic acid 3-fluoro-4-trifluoromethyl-benzyl amide], the inhibition at 10 µM worked out at 83%.

`O=C(NCCN1CCOCC1)c1noc2c1CN(S(=O)(=O)c1cccs1)CC2` [Example 57, 5-(thiophene-2-sulfonyl)-4,5,6,7-tetrahydro-isoxazolo[4,5-c]pyridine-3-carboxylic acid (2-morpholin-4-yl-ethyl) amide] registered an inhibition at 10 µM of 63%.

Consider `COc1ccc(S(=O)(=O)N2CCc3onc(C(=O)Nc4ccc(C)cc4)c3C2)cc1` [Example 53, 5-(4-methoxy-benzenesulfonyl)-4,5,6,7-tetrahydro-isoxazolo[4,5-c]pyridine-3-carboxylic acid p-tolyl amide], for which the inhibition at 10 µM was determined as 89%.
